Results from patent publication US9655990B2, “Polymer based hydrogel” (YEDITEPE UNIVERSITESI, priority 2013, dated 2017).

Assays:
Akt gene = assay: Real time PCR, Akt gene level; assay type: cell-based
Method: (§1) Real time PCR (Polymerase Chain Reaction) analyses were performed according to the literature by using SYBR Green method (Yalvac et al, 2010). The primers belonging to the collagen, fibronectin, laminin, Akt, Bax and P53 genes were designed using Primer BLAST software (The National Center for Biotechnology=NCBI). Total RNAs were isolated from the cells on which gel combination was applied and cDNA was synthesized. The synthesized cDNAs were mixed with primers in SYBR Green mix solution such that the final volume will be 20 μl and the expression levels of the genes (FIG. 8) were analyzed by using BIO-RAD device.

Bax and p53 genes = assay: Real time PCR, apoptotic gene levels; assay type: cell-based
Method: as §1

L929-HUVEC co-culture = assay: In vitro wound healing scratch assay, L929-HUVEC co-culture; assay type: cell-based
Method: (§2) In order to determine the effect of the gel on wound healing, its capacity for cell migration and wound closure was analyzed by using the scratch assay described in the literature (Walter et al. 2010). […] The cells were seeded onto 12 well culture plates at a concentration of 100,000 cells/well, and by storing them in a carbon dioxide incubator so that they were enabled to attach and reach the sufficient density. Scratches were formed by using 200 μl pipette tip such that they will be perpendicular to the horizontal lines drawn by an acetate pen from the center of the wells to the outside of the wells. Gel combination was applied on the cells and scratch closure was observed. Setrach closure (FIG. 6-7) was analyzed by using NIH Image program upon photographing the regions of the straches which correspond to the lines drawn by an acetate pen and which are in the field of view of the microscope at 0, 12 and 24 hours.

glutathione peroxidase = assay: Glutathione peroxidase enzyme activity assay in treated cells; assay type: cell-based; conditions: in comparison to the control group
Method: (§3) Antioxidant parameters were determined by glutathione peroxidase and superoxide dismutase enzyme activity assay and analysis of the MDA (malondialdehyde) levels. The cells which were subjected to the gel combination, to the active agent and only to the medium for control purposes in 6-well culture plates were collected and protein isolation was performed from the cell pellet by determined by measuring absorbance and drawing a standard curve at 595 nm wavelength with Bradford solution in 96-well ELISA plates by using bovine albumin protein standards (0.125, 0.25, 0.5, 0.75, 1.0, 1.5, 2.0 mg/ml). The enzyme activity assays and MDA levels were determined such that they wilt comply with the protocols given in commercials kits (FIG. 9).

L929 (Mouse Fibroblast) = assay: In vitro wound healing scratch assay, L929 cells; assay type: cell-based
Method: as §2

malondialdehyde = assay: Malondialdehyde (MDA) level in treated cells; assay type: cell-based; conditions: in comparison to the control group
Method: as §3

HF (Human Fibroblast) = assay: In vitro wound healing scratch assay, human fibroblast cells; assay type: cell-based
Method: as §2

superoxide dismutase = assay: Superoxide dismutase enzyme activity assay in treated cells; assay type: cell-based; conditions: determined indirectly
Method: as §3

Substance: sodium pentaborate pentahydrate
- akt gene levels (Akt gene): decreased
- apoptotic gene levels (Bax, p53) (Bax and p53 genes): decreased
- wound closure rate (L929-HUVEC co-culture; 12 hours): 59%
- wound closure rate (L929-HUVEC co-culture; 24 hours): 100%
- glutathione peroxidase enzyme activity (glutathione peroxidase): substantial amount of enzyme activity
- karyotype (human fibroblast cells): maintained their normal karyotypes
- wound closure (L929 (Mouse Fibroblast); 12 hours): 71%
- wound closure rate (L929 (Mouse Fibroblast); 24 hours): 84%
- malondialdehyde levels (malondialdehyde): low MDA levels
- wound closure rate (HF (Human Fibroblast); 12 hours): 58%
- wound closure rate (HF (Human Fibroblast); 24 hours): 91%
- superoxide dismutase enzyme activity (superoxide dismutase): high level of enzyme activity
